Patent US9732088B2, “C2-carbocyclic iminothiazine dioxides as BACE inhibitors, compositions, and their use” (Merck Sharp & Dohme Corp., priority 2014, dated 2017)

biological target: rat Mdr1a (P-gp) (Rattus norvegicus, UniProt Q6PSM0); assay: P-Glycoprotein (P-gp) Efflux Susceptibility Assay; assay type: in vitro ADME; settings: LLC-PK1, pH 7.4; rat LLC-Mdr1a cells, B-A/A-B Papp ratio at 3 h; method 0.1 μM; read-out: P-gp efflux assay (rMDR1a BAAB)
Protocol: Assay 6: P-Glycoprotein (P-Gp) Efflux Susceptibility Assay
As P-gp is expressed at the blood-brain-barrier, among other tissues, lower P-gp efflux ratio values are associated with a better ability to cross the blood-brain-barrier to reach the site of BACE-1 expression in the central nervous system. P-gp efflux ratios are measured in cellular assays using cell lines that express P-gp from a number of species including rat, monkey, and human. The following assay was used to measure the rat P-gp efflux ratios, which are believed to be the most sensitive measure of P-gp susceptibility, for the compounds of the invention (test compounds) reported in the tables below.
The bidirectional transport of test compounds was conducted across pig kidney epithelial (LLC-PK1) cell monolayers. Native LLC-PK1 cells were obtained from The Netherlands Cancer Institute (Amsterdam, The Netherlands), and used under a license agreement. LLC-PK1 cells expressing a cDNA encoding rat Mdr1a (rat LLC-Mdr1a) were made in-house by stable transfection of LLC-PK1 cells with a rat MDR1 cDNA. LLC-PK1 and rat LLC-Mdr1a cell lines were cultured in 96-well transwell culture plates. […] Substrate solution (150 μL) was added to either the apical (A) or the basolateral (B) compartment of the culture plate, and buffer (150 μL; HBSS, 10 mM HEPES, pH 7.4) was added to the compartment opposite to that containing the compound. At t=3 h, 50 μL samples were removed from both sides of monolayers dosed with test compound and placed in 96 well plates, internal standard (50 μL 1 μM labetolol) was added to the samples. Samples were analyzed by LC/MS/MS using an Applied Biosystems SCIEX API 5000 triple quadruple mass spectrometry (Concord, ON, Canada) with a TurbolonSpray ion source in the positive ion mode. A Thermo Scientific Transcend LX-2 system (Franklin, Mass.) was coupled to the API 5000 with a flow rate of 800 μL/min to direct sample into the mass spectrometer. A Waters ACQUITY UPLC T3 (2×30 mm, 1.7 μm; Milford, Mass.) column was used for sample analysis. Mobile phase A consisted of 0.1% formic acid in water. Mobile phase B was acetonitrile with 0.1% formic acid. A gradient elution program was utilized where the solvent composition was held at 5% B for 0.25 min, changed from 5% B to 95% B at 0.25 min, and followed by holding at 95% B for 0.5 min, then, went back to 5% B at 0.75 min. The column was then re-equilibrated at the original solvent composition for 0.5 min. Mass spectrometric detection was accomplished by multiple reaction monitoring (MRM) of transitions unique to each compound. Sample concentration was obtained by extrapolation from the standard curve. Verapamil (1 μM) was used as the positive control to assess the functional activity of Pgp. The experiment was performed in triplicate.
The Papp was calculated by the following formula for samples taken at t=3 h:
[formula] where “Volume of Receptor Chamber” is 0.15 mL, “Area of membrane” is 0.11 cm^2, the “Initial Concentration” is the sum of the concentration measured in the donor compartment plus the concentration measured in the receiver compartment at t=3 h, “Δ in Concentration” is the concentration in the receiver compartment at 3 h, and “Δ in Time” is the incubation time (3×60×60=10800 s). Papp was expressed as 10^−6 cm/s.
The Papp reported in the table below is the average of the Papp for transport from A to B and Papp for transport from B to A at t=3 hr.
The B-A/A-B ratio (BAAB) was calculated by dividing the Papp from B to A by the Papp from A to B at t=3 h: […]

rat Mdr1a (P-gp), sequence (Q6PSM0 1-1272): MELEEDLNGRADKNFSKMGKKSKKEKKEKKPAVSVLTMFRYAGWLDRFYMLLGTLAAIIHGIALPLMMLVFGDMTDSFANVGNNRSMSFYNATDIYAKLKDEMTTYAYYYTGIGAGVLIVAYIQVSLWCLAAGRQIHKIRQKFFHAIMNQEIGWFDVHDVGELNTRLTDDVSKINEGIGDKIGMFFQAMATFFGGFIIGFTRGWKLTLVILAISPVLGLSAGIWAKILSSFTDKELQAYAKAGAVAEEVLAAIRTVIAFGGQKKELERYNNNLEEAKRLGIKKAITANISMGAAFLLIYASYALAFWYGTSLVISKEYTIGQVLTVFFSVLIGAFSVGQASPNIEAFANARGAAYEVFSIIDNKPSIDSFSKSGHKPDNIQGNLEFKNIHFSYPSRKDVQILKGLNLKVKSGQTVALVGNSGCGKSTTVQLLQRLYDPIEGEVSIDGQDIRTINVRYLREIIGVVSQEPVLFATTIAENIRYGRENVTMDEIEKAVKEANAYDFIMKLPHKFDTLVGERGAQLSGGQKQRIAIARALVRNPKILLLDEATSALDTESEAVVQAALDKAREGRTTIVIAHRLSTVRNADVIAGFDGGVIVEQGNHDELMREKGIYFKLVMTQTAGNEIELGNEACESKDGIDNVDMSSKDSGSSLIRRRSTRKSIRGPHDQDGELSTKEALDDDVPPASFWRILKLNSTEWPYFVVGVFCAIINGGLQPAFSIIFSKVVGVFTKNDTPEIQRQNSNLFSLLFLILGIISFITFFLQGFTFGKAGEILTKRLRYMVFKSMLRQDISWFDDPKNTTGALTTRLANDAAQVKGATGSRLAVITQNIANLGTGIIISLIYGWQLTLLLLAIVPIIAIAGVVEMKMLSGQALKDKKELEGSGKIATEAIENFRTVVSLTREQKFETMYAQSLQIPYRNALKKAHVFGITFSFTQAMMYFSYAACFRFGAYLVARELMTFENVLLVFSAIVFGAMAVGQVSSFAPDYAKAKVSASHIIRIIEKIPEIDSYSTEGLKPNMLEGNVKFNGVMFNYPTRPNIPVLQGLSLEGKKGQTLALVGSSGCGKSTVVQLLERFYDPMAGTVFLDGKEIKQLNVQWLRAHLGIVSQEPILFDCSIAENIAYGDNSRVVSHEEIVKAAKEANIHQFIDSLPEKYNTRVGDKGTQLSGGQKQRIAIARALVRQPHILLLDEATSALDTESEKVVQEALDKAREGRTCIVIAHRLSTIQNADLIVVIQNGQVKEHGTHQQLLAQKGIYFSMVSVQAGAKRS

In order of rising efflux ratio at 3 h:
1. COc1cnc2c(Nc3cc([C@]4(C)CS(=O)(=O)[C@@](C)(C5CC5)C(N)=N4)c(F)cn3)nccc2c1 [Example 6, N-{4-[(3R,6S)-6-cyclopropyl-5-imino-3,6-dimethyl-1,1-dioxidothiomorpholin-3-yl]-5-fluoropyridin-2-yl}-3-methoxy-1,7-naphthyridin-8-amine]  1.5
2. COc1cnc2c(Nc3ccc(F)c([C@]4(C)CS(=O)(=O)[C@@](C)(C5CC5)C(N)=N4)c3)nccc2c1 [Example 14, N-{3-[(3R,6S)-6-cyclopropyl-5-imino-3,6-dimethyl-1,1-dioxidothiomorpholin-3-yl]-4-fluorophenyl}-3-methoxy-1,7-naphthyridin-8-amine]  2.9
3. COc1cnc2c(Nc3ccc(F)c([C@]4(C)CS(=O)(=O)C(C)(C)C(N)=N4)c3)nccc2n1 [Ex 47 of WO2014059185, reference compound]  7.9
4. C[C@@]1(c2cc(Nc3nccc4cc(C#N)cnc34)ccc2F)CS(=O)(=O)[C@@](C)(C2CC2)C(N)=N1 [Example 18, 8-({3-[(3R,6S)-6-cyclopropyl-5-imino-3,6-dimethyl-1,1-dioxidothiomorpholin-3-yl]-4-fluorophenyl}amino)-1,7-naphthyridine-3-carbonitrile]  11
5. COc1cnc2c(Nc3ccc(F)c([C@]4(C)CS(=O)(=O)[C@@](C)(C5CC5)C(N)=N4)c3)ncnc2n1 [Example 22, (2S,5R)-2-cyclopropyl-5-(2-fluoro-5-((7-methoxypteridin-4-yl)amino)phenyl)-3-imino-2,5-dimethylthiomorpholine 1,1-dioxide]  26
6. C[C@@]1(c2nc(Nc3nccc4cc(C#N)cnc34)ncc2F)CS(=O)(=O)[C@@](C)(C2CC2)C(N)=N1 [Example 5, 8-({4-[(3R,6S)-6-cyclopropyl-5-imino-3,6-dimethyl-1,1-dioxidothiomorpholin-3-yl]-5-fluoropyrimidin-2-yl}amino)-1,7-naphthyridine-3-carbonitrile]  31
7. C[C@@]1(c2cc(Nc3ncnc4cc(C#N)cnc34)ccc2F)CS(=O)(=O)[C@@](C)(C2CC2)C(N)=N1 [Example 16, 4-({3-[(3R,6S)-6-cyclopropyl-5-imino-3,6-dimethyl-1,1-dioxidothiomorpholin-3-yl]-4-fluorophenyl}amino)pyrido[3,2-d]pyrimidine-7-carbonitrile]  31
